In patent US8471024B2, “Tetrahydrofuropyridones” (priority 2008, dated 2013):

Each molecule was assayed against T1, PHD2 (Homo sapiens, UniProt Q9GZT9) (assay: Assay for HIF-PHD2 Catalytic Activity (time resolved fluorescence, VHL complex detection)). Settings: FLAG-tagged full length PHD2; 0.2 μM 2-oxoglutarate, 0.5 μM HIF-1α peptide; read-out: PHD2 Binding Activity IC50.
T1 construct: FLAG-tagged full length PHD2expressed in and purified from baculovirus-infected Sf9 cells; FLAG; made in house; host or cells: baculovirus-infected Sf9 cells
T1 sequence (Q9GZT9 whole entry): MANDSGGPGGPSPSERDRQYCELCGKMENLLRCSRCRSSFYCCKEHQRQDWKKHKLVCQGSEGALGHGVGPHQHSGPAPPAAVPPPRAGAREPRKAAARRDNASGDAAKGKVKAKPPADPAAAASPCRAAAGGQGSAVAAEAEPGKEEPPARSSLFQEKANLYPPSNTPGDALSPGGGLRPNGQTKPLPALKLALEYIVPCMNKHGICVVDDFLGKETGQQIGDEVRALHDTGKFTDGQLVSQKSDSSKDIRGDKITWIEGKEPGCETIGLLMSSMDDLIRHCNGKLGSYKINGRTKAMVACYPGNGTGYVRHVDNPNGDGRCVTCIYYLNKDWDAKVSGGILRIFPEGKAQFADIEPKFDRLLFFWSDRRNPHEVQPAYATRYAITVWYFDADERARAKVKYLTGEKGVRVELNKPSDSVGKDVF
Type: biochemical
Description: Assay for HIF-PHD2Catalytic Activity To each well of a 96-well plate was added 1 μL of test compound in DMSO and 20 μl of assay buffer (50 mM Tris pH 7.4/0.01% Tween-20/0.1 mg/ml bovine serum albumin/10 μM ferrous sulfate/1mM sodium ascorbate/20 μg/ml catalase) containing 0.15 μg/ml FLAG-tagged full length PHD2expressed in and purified from baculovirus-infected Sf9 cells. After a 30 min preincubation at room temperature, the enzymatic reactions were initiated by the addition of 4 μL of substrates (final concentrations of 0.2 μM 2-oxoglutarate and 0.5 μM HIF-1α peptide biotinyl-DLDLEMLAPYJPMDDDFQL).

| SMILES | IC50 [µM] |
| --- | --- |
| CCN(CC)C(=O)c1ccccc1-c1ccc(Cn2c3c(c(O)c(C(=O)NCC(=O)O)c2=O)COC3)c(F)c1 [Example 40] | < 0.01 |
| O=C(O)CNC(=O)c1c(O)c2c(n(Cc3cnc(-c4ccccc4OC(F)(F)F)cn3)c1=O)COC2 [Example 54, N-[(1-{[5-(2-trifluoromethoxyphenyl)pyrazin-2-yl]methyl}-4-hydroxy-2-oxo-1,2,5,7-tetrahydrofuro[3,4-b]pyridin-3-yl)carbonyl]glycine] | < 0.01 |
| CC1OCc2c1c(O)c(C(=O)NCC(=O)O)c(=O)n2Cc1ccc(C(F)(F)F)cc1 (stereo not shown) [Example 13, N-({4-hydroxy-5-methyl-2-oxo-1-[4-(trifluoromethyl)benzyl]-1,2,5,7-tetrahydrofuro[3,4-b]pyridin-3-yl}carbonyl)glycine] | < 0.01 |
| O=C(O)CNC(=O)c1c(O)c2c(n(Cc3ccc(-c4ccc(Cl)cc4Cl)cc3)c1=O)COC2 [Example 35] | < 0.01 |
| O=C(O)CNC(=O)c1c(O)c2c(n(Cc3ccc(-c4ccccc4OCC(F)(F)F)cc3)c1=O)COC2 [Example 34, N-[(4-hydroxy-1-{[2′-(2,2,2-trifluoroethoxy)biphenyl-4-yl]methyl}-2-oxo-1,2,5,7-tetrahydrofuro[3,4-b]pyridin-3-yl}carbonyl)glycine] | < 0.01 |
| O=C(O)CNC(=O)c1c(O)c2c(n(Cc3nc(-c4ccccc4Cl)cs3)c1=O)COC2 [Example 27, N-[(1-{[4-(2-chlorophenyl)-1,3-thiazol-2-yl]methyl)-4-hydroxy-2-oxo-1,2,5,7-tetrahydrofuro[3,4-b]pyridin-3-yl)carbonyl]glycine] | < 0.01 |
| Cn1cc(-c2ccc(Cn3c4c(c(O)c(C(=O)NCC(=O)O)c3=O)COC4)cn2)cn1 [Example 43, N-[(4-hydroxy-1-{[6-(1-methyl-1H-pyrazol-4-yl)pyridin-3-yl)methyl}-2-oxo-1,2,5,7-tetrahydrofuro[3,4-b]pyridin-3-yl)carbonyl]glycine] | < 0.01 |
| O=C(O)CNC(=O)c1c(O)c2c(n(Cc3ccc(-c4ccc(F)cc4F)nc3)c1=O)COC2 [Example 44, N-[(1-{[6-(2,4-difluorophenyl)pyridin-3-yl]methyl}-4-hydroxy-2-oxo-1,2,5,7-tetrahydrofuro[3,4-b]pyridin-3-yl)carbonyl]glycine] | < 0.01 |

Now from value to molecule:

| IC50 [µM] | SMILES |
| --- | --- |
| < 0.01 | O=C(O)CNC(=O)c1c(O)c2c(n(Cc3ccc(Cl)nc3)c1=O)COC2 [Example 9, N-({1-[(6-chloropyridin-3-yl)methyl]-4-hydroxy-2-oxo-1,2,5,7-tetrahydrofuro[3,4-b]pyridin-3-yl}carbonyl)glycine] |
| < 0.01 | O=C(O)CNC(=O)c1c(O)c2c(n(Cc3cnc(-c4ccccc4Cl)cn3)c1=O)COC2 [Example 53, N-[(1-{[5-(2-chlorophenyl)pyrazin-2-yl]methyl}-4-hydroxy-2-oxo-1,2,5,7-tetrahydrofuro[3,4-b]pyridin-3-yl)carbonyl]glycine] |
| < 0.01 | O=C(O)CNC(=O)c1c(O)c2c(n(Cc3ccc(-c4ccccc4Cl)cc3F)c1=O)COC2 [Example 38] |
| < 0.01 | O=C(O)CNC(=O)c1c(O)c2c(n(Cc3nc(-c4ccc(Cl)cc4Cl)cs3)c1=O)COC2 [Example 26, N-[(1-{[4-(2,4-dichlorophenyl)-1,3-thiazol-2-yl]methyl)-4-hydroxy-2-oxo-1,2,5,7-tetrahydrofuro[3,4-b]pyridin-3-yl)carbonyl]glycine] |
| < 0.01 | O=C(O)CNC(=O)c1c(O)c2c(n(Cc3ccn(-c4ccc(F)cc4)n3)c1=O)COC2 [Example 22] |
